Assay results reported in patent publication US12018020B2, “Crystalline forms of 1-[(3R,4S)-4-cyanotetrahydropyran-3-yl]-3-[(2-fluoro-6-methoxy-4-pyridyl)amino]pyrazole-4-carboxamide” (Intervet Inc., priority 2018, dated 2024).
Values after ≈ are worked out from the molar mass of the structure shown. Read-outs that look alike come from different tables or passages of the source.

Key:
Assay type in all cases: physicochemical
[1] = Slurry form-conversion experiments in organic solvents (relative thermodynamic stability)
Text: Form 1 and Form 2 are monotropically related.
This is evidence that Form 1 is more thermodynamically stable than Form 2.

[2] = Conversion to hydrate risk: slurry in 5% SLS aqueous solution seeded with 5% hydrate seeds, PXRD; details: 20 mg/mL in 5% SLS aqueous solution, 24 hours
Procedure: Slurry experiments in water containing 5% SLS were used to assess the risk of form conversion during wet granulation. Typical wet granulation conditions include drying at 60 to 70° C. for 1.5 to 2 hours.
Slurries containing 20 mg/mL of either Form 1 or Form 2 in 5% sodium lauryl sulfate (SLS) aqueous solution were seeded with 5% hydrate seeds and monitored for form change with PXRD over 24 hours at room temperature and at 80° C.

[3] = Storage stability (processability assessment), 12 months
Text: There is a risk of Form 2 conversion to hydrate at the typical wet granulation temperature when seeds of hydrate are present.

[4] = Solubility in 7/3 v/v toluene/MeOH
[5] = 40° C./75% relative humidity (RH)

Row | Relative thermodynamic stability ([1]; in aqueous solutions) | Hydrate peak growth (PXRD) ([2]; 80° C.) | Hydrate peak growth (PXRD) ([2]; room temperature) | Physical and chemical stability on storage [3, 5] | Physical and chemical stability on storage ([3]; 55° C.) | Form conversion in slurry seeded with Form 1 ([1]; 2-Me-THF, Ethyl Acetate, MeOH or MeOH/toluene (70:30 v/v), 50° C., seeded with Form 1 at 14 days, 28 days total) | Form conversion in slurry ([1]; Ethyl Acetate and Isopropyl Acetate, 25° C., after 28 days) | Form conversion in competitive slurry ([1]; ~10 mg each of Form 1 and Form 2 in 1 mL MeOH, 50° C., after 4 days) | solubility ([4]; 25 °C) [µg/mL] | solubility ([4]; 40 °C) [µg/mL] | solubility ([4]; 60 °C) [µg/mL] | Relative thermodynamic stability ([1]; Form 1 versus Form 2, monotropically related) | Form after slurry ([1]; slurried in MeOH, 3 weeks, room temperature) | solubility ([4]; 25 °C, organic solvent or mixture, 25 °C, read-out: Solubility) [µg/mL] | solubility ([4]; 40 °C, organic solvent or mixture, 40 °C, read-out: Solubility) [µg/mL] | solubility ([4]; 60 °C, organic solvent or mixture, 60 °C, read-out: Solubility) [µg/mL] | SMILES
1 | most stable form in aqueous solutions | – | – | – | – | – | – | – | – | – | – | – | – | – | – | – | COc1cc(Nc2nn([C@H]3COCC[C@@H]3C#N)cc2C(N)=O)cc(F)n1 [Hydrate, 1-[(3R,4S)-4-cyanotetrahydropyran-3-yl]-3-[(2-fluoro-6-methoxy-4-pyridyl)amino]pyrazole-4-carboxamide]
2 | – | no hydrate peak growth was observed | hydrate peak growth was observed | physically and chemically stable | physically and chemically stable | full or conversion to Form 1 | Partial conversion | full conversion to Form 1 | 4700 (≈ 13 mM) | 9300 (≈ 25.8 mM) | 15600 (≈ 43.3 mM) | – | – | – | – | – | COc1cc(Nc2nn([C@H]3COCC[C@@H]3C#N)cc2C(N)=O)cc(F)n1 [Form 2, 1-[(3R,4S)-4-cyanotetrahydropyran-3-yl]-3-[(2-fluoro-6-methoxy-4-pyridyl)amino]pyrazole-4-carboxamide]
3 | – | No hydrate peak growth observed | No hydrate peak growth observed | physically and chemically stable | physically and chemically stable | – | – | – | – | – | – | more stable than Form 2 | remained as Form 1 | 3400 (≈ 9.44 mM) | 6600 (≈ 18.3 mM) | 12500 (≈ 34.7 mM) | COc1cc(Nc2nn([C@H]3COCC[C@@H]3C#N)cc2C(N)=O)cc(F)n1 [Form 1, 1-[(3R,4S)-4-cyanotetrahydropyran-3-yl]-3-[(2-fluoro-6-methoxy-4-pyridyl)amino]pyrazole-4-carboxamide]
